# Test results from patent US5721219A, “N-alkyl-2-substituted ATP analogues and administration to inhibit platelet aggregation” (Astra Pharmaceuticals Ltd., priority 1993, dated 1998).
# Counter-ions that a name gives are not always drawn.
# What was measured:
# [1] = molecular target: T1, P2T receptor (Homo sapiens, UniProt Q9H244); assay: P2T receptor agonist/antagonist activity in washed human platelets (inhibition of ADP-induced aggregation); type: cell-based; details: submaximal ADP, 15 min incubation with test compound, 8-SPT present, % inhibition of control ADP response giving approximate IC50, read-out: pIC50 (negative logarithm of the antagonist potency) (converted)
# T1 construct: activity in washed human platelets; endogenous in cells; host or cells: washed human platelets from venous blood of donors
# Method: Quantification of P2T receptor aganoist/antagonist activity in washed human platelets Human venous blood (100 ml) was divided equally between 3 tubes, each containing 3.2% trisodium citrate (4 ml) as anti-coagulant. The tubes were centrifuged for 15 min at 240G to obtain a platelet-rich plasma (PRP) to which 300 ng.ml^-1 prostacyclin (PGI2, 3 μl.ml^-1 PRP of 1/10 diln. in saline from stock 1 mg/ml^-1 in ethanol) was added to stabilize the platelets during the washing procedure. Red cell free PRP was obtained by centrifugation for 10 min at 125G followed by further centrifugation for 15 min at 640G. The supernatant was discarded and the platelet pellet resuspended in modified, calcium free, Tyrode solution [(10 ml) CFT, composition: NaCl 137 mM (8 g.l^-1), NaHCO3 11.9 mM (1 g.l^-1), NaH2 PO, 0.38 mM (0.06 g.l^-1), KCl 2.86 mM (1 ml of 20% soln.l^-1), MgCl2 1.05 mM (1 ml of 10% soln.l^-1), dextrose 5.55 mM (1 g.l^-1)], gassed with 95% O2 /5% CO2 and maintained at 37°. Following addition of a further 300 ng.ml^-1PGI2, the pooled suspension was centrifuged once more for 15 min at 640G. The supernatant was discarded and the platelets resuspended initially in 10 ml CFT with further CFT added to adjust the final platelet count to 2×10^5.μl^-1. This final suspension was stored in a 60 ml syringe at 3° with air excluded.
# To allow recovery from PGI2 -inhibition of normal function, platelets were used in aggregation studies no sooner than 2 hours after final resuspension. […]
# A concentration of ADP producing a just submaximal response was selected by constructing a concentration/response curve over the range 10-300 μM. the appropriate solution of ADP was added to the aggregation cuvette in a volume of 10 μl, 20 min after starting the aggregation trace. Aggregation responses were measured using the maximum rate of change in light transmission, an index given by the PAP4 slope-reader. […]
# [2] = system: guinea pig taenia coli; details: Maguire and Satchell 1979; cited from earlier work
# [3] = system: platelet aggregation; details: Cusack and Hourani, Nucleosides & Nucleotides 1991; cited from earlier work
# T1 sequence (Q9H244 whole entry): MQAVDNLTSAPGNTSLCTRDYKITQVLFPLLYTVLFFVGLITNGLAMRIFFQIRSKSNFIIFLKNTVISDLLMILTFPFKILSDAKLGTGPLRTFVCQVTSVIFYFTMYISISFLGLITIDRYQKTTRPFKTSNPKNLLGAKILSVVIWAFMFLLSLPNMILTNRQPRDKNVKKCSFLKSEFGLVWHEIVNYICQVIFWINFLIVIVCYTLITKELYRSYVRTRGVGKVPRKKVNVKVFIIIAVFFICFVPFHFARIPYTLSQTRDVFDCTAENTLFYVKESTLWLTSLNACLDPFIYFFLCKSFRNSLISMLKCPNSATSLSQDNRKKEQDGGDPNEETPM
compound,measurement,setting,value
"O=P(O)(OC[C@H]1O[C@@H](n2cnc3c(NCC(F)(F)F)nc(SCCC(F)(F)F)nc32)[C@H](O)[C@@H]1O)OP(=O)(O)C(Cl)(Cl)P(=O)(O)O [Example 6a, N-(2,2,2-Trifluoroethyl)-2-[(3,3,3-trifluoropropyl)thio]-5'-adenylic acid, monoanhydride with dichloromethylenebisphosphonic acid, triammonium salt]",IC50,[1],724 pM
"Nc1nc(Cl)nc2c1ncn2[C@@H]1O[C@H](COP(=O)(O)OP(=O)(O)CP(=O)(O)O)[C@@H](O)[C@H]1O [2-chloro-5'-adenylic acid, monoanhydride with methylenebisphosphonic acid]",inhibition of guinea pig taenia coli,[2],inhibition
"CSc1nc(N)c2ncn([C@@H]3O[C@H](COP(=O)(O)OP(=O)(O)CP(=O)(O)O)[C@@H](O)[C@H]3O)c2n1 [2-methylthio-5'-adenylic acid, monoanhydride with methylenebisphosphonic acid]",inhibition of ADP-α-S induced platelet aggregation,[3],inhibits
"CCNc1nc(SCCC(F)(F)F)nc2c1ncn2[C@@H]1O[C@H](COP(=O)(O)OP(=O)(O)C(Cl)(Cl)P(=O)(O)O)[C@@H](O)[C@H]1O [Example 5, N-Ethyl-2-[(3,3,3-trifluoropropyl)thio]-5'-adenylic acid, monoanhydride with dichloromethylenebisphosphonic acid, trisodium salt]",IC50,[1],2090 pM
"CCCSc1nc(NCC)c2ncn([C@@H]3O[C@H](COP(=O)(O)OP(=O)(O)C(Cl)(Cl)P(=O)(O)O)[C@@H](O)[C@H]3O)c2n1 [Example 1, N-Ethyl-2-(propylthio)-5'-adenylic acid, monoanhydride with dichloromethylenebisphosphonic acid, tetrasodium salt]",IC50,[1],912 pM
